Laboratory results: patent publication US20160242450A1, “Functional-gel Compositions and Methods” (priority 2014, published 2016)

Test: Energy intake and weight loss rodent study, preloads before high fat diet (Experiment 2)
Type: in vivo
Conditions: mice on high fat diet, daily preload one hour before diet
Description: Fifteen adult female feeder mice were preconditioned for 15 days on a […]. PicoLab Rodent diet 20 was supplemented to […] by adding a mixture of fats consisting of (38% butter, 30% shortening, 23% lard, and 8% canola oil). High fat diet was provided ad libitum. After the pre-conditioning period mice were assigned to one of four groups ([…]) to generate similar mean body weights between groups as described below. Mice were given control or test article preloads one hour prior to receiving ad libitum high fat diet on a daily basis, mice received high fat diet at ad libitum over night (rodent active period of the day) and were fasted during day time hours (the rodent dormant period of the day). Body weights were obtained on Day 15 and Day 30 post treatment initiation and data was used to calculate change in body weight from baseline, Day 0. Mean body weights (FIG. 1) and % change in body weight (FIG. 2) data is provided with corresponding SEM. Partially hydrolyzed collagen (GEL group) test article was hydrated in 10× in hot water then allowed to set to firm gel 4-8° C. overnight. Wheat Flour (FLOU group) and Psyllium (PSY group) test articles were hydrated in water. Wheat Flour was cooked via microwave for 2 min at an 800 Watt setting.

SMILES: CCCCCCCCCCC[C@@H](C[C@@H]1OC(=O)[C@H]1CCCCCC)OC(=O)[C@H](CC(C)C)NC=O [ALLI, Orlistat]
- Body weight change over a 30 day treatment period (FIG. 1, FIG. 2): weight loss
